As a reminder, the IC50 is the concentration that inhibits the measured activity by half. High values mean weaker potency in that assay, low ones greater potency in that assay.

Results on 15 compounds are retold here after ChEMBL document CHEMBL1240533, “Selectivity and potency of cyclin-dependent kinase inhibitors” (AAPS J, 2006).

Assay [1] concerns the target Cyclin-dependent kinase 4 (Homo sapiens, UniProt P11802).
The target in assay [2] is Cyclin-dependent kinase 2/cyclin A (Homo sapiens, UniProt P24941). The class given is protein-complex assay.
Description: Inhibition of CDK2/cyclin A
For assay [3], the target named is Cyclin-dependent kinase 5 (Homo sapiens, UniProt Q00535).
In assay [4] the target is Cyclin-dependent kinase 6 (Homo sapiens, UniProt Q00534).
Chain of Cyclin-dependent kinase 6 (Q00534 whole entry): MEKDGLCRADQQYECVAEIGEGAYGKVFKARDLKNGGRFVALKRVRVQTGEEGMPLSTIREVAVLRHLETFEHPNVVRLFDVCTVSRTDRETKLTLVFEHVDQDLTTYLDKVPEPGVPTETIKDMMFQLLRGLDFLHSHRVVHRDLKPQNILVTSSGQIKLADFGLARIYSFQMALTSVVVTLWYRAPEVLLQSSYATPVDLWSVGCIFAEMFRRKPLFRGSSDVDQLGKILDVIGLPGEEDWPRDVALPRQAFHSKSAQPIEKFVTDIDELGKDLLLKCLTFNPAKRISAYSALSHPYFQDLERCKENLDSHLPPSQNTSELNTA

Chain of Cyclin-dependent kinase 5 (Q00535 whole entry): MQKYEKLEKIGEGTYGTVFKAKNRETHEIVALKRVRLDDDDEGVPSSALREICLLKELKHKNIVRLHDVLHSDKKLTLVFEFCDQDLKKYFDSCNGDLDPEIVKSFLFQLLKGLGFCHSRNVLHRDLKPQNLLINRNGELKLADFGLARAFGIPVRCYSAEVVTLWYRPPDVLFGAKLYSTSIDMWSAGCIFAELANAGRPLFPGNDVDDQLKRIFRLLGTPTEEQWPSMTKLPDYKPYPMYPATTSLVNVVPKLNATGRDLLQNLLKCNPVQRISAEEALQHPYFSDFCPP
Chain of Cyclin-dependent kinase 4 (P11802 whole entry): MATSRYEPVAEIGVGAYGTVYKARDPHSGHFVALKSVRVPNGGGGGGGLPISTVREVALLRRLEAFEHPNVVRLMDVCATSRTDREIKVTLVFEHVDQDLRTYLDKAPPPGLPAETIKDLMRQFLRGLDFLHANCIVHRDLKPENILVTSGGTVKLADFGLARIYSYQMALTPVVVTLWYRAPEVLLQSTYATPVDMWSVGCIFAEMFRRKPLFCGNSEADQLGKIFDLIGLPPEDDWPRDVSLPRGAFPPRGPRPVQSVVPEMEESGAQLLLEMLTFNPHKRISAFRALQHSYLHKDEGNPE

In assay [1], `O=C(Cc1ccc2ccccc2c1)Nc1cc(C2CC2)n[nH]1` had a concentration for half-maximal inhibition (IC50) of more than 10000 nM. The same measure, in the same setting: with `O=C1C(c2c(O)[nH]c3ccc(S(=O)(=O)O)cc23)=Nc2ccccc21` the figure was 200 nM.

`CC(=O)N[C@@H](CCCN=C(N)N)C(=O)N[C@@H](CCCN=C(N)N)C(=O)N[C@@H](CC(C)C)C(=O)N[C@@H](CC(N)=O)C(=O)N[C@@H](Cc1ccccc1)C(N)=O`: the half-maximal inhibitory concentration (IC50) in assay [2] was more than 50 µM.

For `Cc1ccc(F)c(Nc2nccc(-c3ccc(S(N)(=O)=O)cc3)n2)c1`, in assay [1], the IC50 came out at 150 nM. The same measure, in the same setting: as for `CCCCOc1c(C(=O)c2c(F)cc(C)cc2F)ccc2[nH]ncc12`, the figure is 2700 nM. In turn, `Nc1nc2ccc(C(=O)c3c(F)cccc3Cl)cc2n1Cc1c(F)cccc1F` registered a half-maximal inhibitory concentration (IC50) in assay [1] of 810 nM. This IC50 is about 3.3-fold lower than that of the compound before. Turning to `O=C(Nc1cc(C2CCC2)c[nH]1)Nc1cccc2ccncc12`, in assay [3], half-maximal inhibition (IC50) required 0.005 µM. In assay [1], `CN(C)CCNS(=O)(=O)c1ccc(Nc2cccc(-c3cnc4ccccn34)c2)cc1` returned a half-maximal inhibitory concentration (IC50) of 260 nM. Regarding `CC1(C)CC2(C)Nc3cc(-c4ccc5c(c4)NC4(C)CC(C)(C)NC(=S)N54)ccc3N2C(=S)N1` (stereo unspecified), the concentration for half-maximal inhibition (IC50) in assay [3] came out at 25 µM. With `CCNc1cc(N[C@H]2CC[C@@H](O)CC2)nc(Nc2ccc3c(ccn3Cc3ccccc3)c2)n1`, the IC50 stood at 5.6 µM in assay [4] and 25 µM in assay [3]. `CC(C)(C)Nc1nc(C(F)(F)F)nc2ccc(Nc3ccccc3)cc12` returned a half-inhibitory concentration (IC50) in assay [1] of more than 2100 nM. The same measure, in the same setting: as for `O=C(Nc1ccccn1)Nc1cccc2c1[C@H]1CCCN1C2=O`, the figure is 2 nM; as for `Nc1nc(N)c(N=O)c(=O)[nH]1`, 230 nM. As to `COc1ccc(-c2[nH]nc3c2C(=O)c2c(NC(=O)NNC(=O)c4ccc(O)cc4)cccc2-3)cc1`, half-maximal inhibition in assay [3] (IC50) was put at 0.005 µM. In assay [1], `O=C1Cc2c([nH]c3ccc([N+](=O)[O-])cc23)-c2ccccc2N1` [ALSTERPAULLONE] had an IC50 of more than 10000 nM.
